# Biological target: BCL2 (Homo sapiens (Human), UniProt P10415)
# Assay: Molecular level activity test of anti-apoptotic protein BCL2 (HTRF, binding to Bim peptide)
# Details: HTRF, binding of BCL2 to Bim peptide; read-out: BCL2 nM (inhibitory activity, IC50)
# Procedure, shortened: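 HTRF readout; His-BCL2 + biotin-BIM peptide + cpd (2% DMSO in compound addition), 1 h; then anti-His + SA-XL665 detection reagents, 4 h RT.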
# BCL2, sequence (P10415 whole entry): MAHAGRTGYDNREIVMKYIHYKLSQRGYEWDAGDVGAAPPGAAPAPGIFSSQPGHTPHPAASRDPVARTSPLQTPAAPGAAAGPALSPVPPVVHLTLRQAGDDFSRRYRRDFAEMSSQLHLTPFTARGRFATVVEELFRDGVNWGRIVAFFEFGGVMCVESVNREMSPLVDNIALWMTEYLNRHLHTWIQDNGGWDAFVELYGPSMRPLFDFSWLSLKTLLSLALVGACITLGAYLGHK
row,IC50 [nM],Structure (SMILES)
1,< 10,"CC(C)c1ccccc1[C@@H]1CN(Cc2ccc(C#N)cc2)CCN1C1CC2(CCN(c3cc(Oc4cnc5[nH]ccc5c4)c(C(=O)NS(=O)(=O)c4ccc(NCC5(F)CCOCC5)c([N+](=O)[O-])c4)cc3F)CC2)C1 [compound 199, (R)-2-((1H-pyrrolo[2,3-b]pyrid-5-yl)oxy)-4-(2-(4-(4-cyanobenzyl)-2-(2-isopropylphenyl)piperazin-1-yl)-7-azaspiro[3.5]non-7-yl)-5-fluoro-N-((4-(((4-fluorotetrahydro-2H-pyran-4-yl)methyl)amino)-3-nitrophenyl)sulfonyl)benzamide]"
2,< 10,"CC(=O)Nc1ccc(CN2CCN(C3CC4(CCN(c5cc(Oc6cnc7[nH]ccc7c6)c(C(=O)NS(=O)(=O)c6ccc(NCC7(F)CCOCC7)c([N+](=O)[O-])c6)cc5F)CC4)C3)[C@H](c3ccccc3C(C)C)C2)cc1 [compound 200, (R)-2-((1H-pyrrolo[2,3-b]pyrid-5-yl)oxy)-4-(2-(4-(4-acetylaminobenzyl)-2-(2-isopropylphenyl)piperazin-1-yl)-7-azaspiro[3.5]non-7-yl)-5-fluoro-N-((4-(((4-fluorotetrahydro-2H-pyran-4-yl)methyl)amino)-3-nitrophenyl)sulfonyl)benzamide]"
3,< 10,"CC(C)c1ccccc1[C@@H]1CN(Cc2ccc(NS(C)(=O)=O)cc2)CCN1C1CC2(CCN(c3cc(Oc4cnc5[nH]ccc5c4)c(C(=O)NS(=O)(=O)c4ccc(NCC5(F)CCOCC5)c([N+](=O)[O-])c4)cc3F)CC2)C1 [compound 201, (R)-2-((1H-pyrrolo[2,3-b]pyrid-5-yl)oxy)-5-fluoro-N-((4-(((4-fluorotetrahydro-2H-pyran-4-yl)methyl)amino)-3-nitrophenyl)sulfonyl)-4-(2-(2-(2-isopropylphenyl)-4-(4-(methylsulfonylamino)benzyl)piperazin-1-yl)-7-azaspiro[3.5]non-7-yl)benzamide]"
4,< 10,"COc1cc(CN2CCN(C3CC4(CCN(c5cc(Oc6cnc7[nH]ccc7c6)c(C(=O)NS(=O)(=O)c6ccc(NCC7(F)CCOCC7)c([N+](=O)[O-])c6)cc5F)CC4)C3)[C@H](c3ccccc3C(C)C)C2)cc2cc(C)oc12 [compound 202, (R)-2-((1H-pyrrolo[2,3-b]pyrid-5-yl)oxy)-5-fluoro-N-((4-(((4-fluorotetrahydro-2H-pyran-4-yl)methyl)amino)-3-nitrophenyl)sulfonyl)-4-(2-(2-(2-isopropylphenyl)-4-((7-methoxy-2-methylbenzofuran-5-yl)methyl)piperazin-1-yl)-7-azaspiro[3.5]non-7-yl)benzamide]"
5,< 10,"COc1ccc(CN2CCN(C3CC4(CCN(c5cc(Oc6cnc7[nH]ccc7c6)c(C(=O)NS(=O)(=O)c6ccc(NCC7(F)CCOCC7)c([N+](=O)[O-])c6)cc5F)CC4)C3)[C@H](c3ccccc3C(C)C)C2)c2c1OCCO2 [compound 206, (R)-2-((1H-pyrrolo[2,3-b]pyrid-5-yl)oxy)-5-fluoro-N-((4-(((4-fluorotetrahydro-2H-pyran-4-yl)methyl)amino)-3-nitrophenyl)sulfonyl)-4-(2-(2-(2-isopropylphenyl)-4-(8-methoxy-2,3-dihydrobenzo[b][1,4-dioxan-5-yl)methyl)piperazin-1-yl)-7-azaspiro[3.5]non-7-yl)benzamide]"
6,< 10,"CC(C)c1ccccc1[C@@H]1CN(Cc2cccc3c2OCCO3)CCN1C1CC2(CCN(c3cc(Oc4cnc5[nH]ccc5c4)c(C(=O)NS(=O)(=O)c4ccc(NCC5(F)CCOCC5)c([N+](=O)[O-])c4)cc3F)CC2)C1 [compound 208, (R)-2-((1H-pyrrolo[2,3-b]pyrid-5-yl)oxy)-4-(2-(4-((2,3-dihydrobenzo[b][1,4]dioxan-5-yl)methyl)-2-(2-isopropylphenyl)piperazin-1-yl)-7-azaspiro[3.5]non-7-yl)-5-fluoro-N-((4-(((4-fluorotetrahydro-2H-pyran-4-yl)methyl)amino)-3-nitrophenyl)sulfonyl)benzamide]"
7,< 10,"CC(C)c1ccccc1[C@@H]1CN(Cc2cnn(C(C)C)c2)CCN1C1CC2(CCN(c3cc(Oc4cnc5[nH]ccc5c4)c(C(=O)NS(=O)(=O)c4ccc(NCC5(F)CCOCC5)c([N+](=O)[O-])c4)cc3F)CC2)C1 [compound 210, (R)-2-((1H-pyrrolo[2,3-b]pyrid-5-yl)oxy)-5-fluoro-N-((4-(((4-fluorotetrahydro-2H-pyran-4-yl)methyl)amino)-3-nitrophenyl)sulfonyl)-4-(2-(4-((1-isopropyl-1H-pyrazol-4-yl)methyl)-2-(2-isopropylphenyl)piperazin-1-yl)-7-azaspiro[3.5]non-7-yl)benzamide]"
8,< 10,"CC(C)c1ccccc1[C@@H]1CN(Cc2ccncc2)CCN1C1CC2(CCN(c3cc(Oc4cnc5[nH]ccc5c4)c(C(=O)NS(=O)(=O)c4ccc(NCC5(F)CCOCC5)c([N+](=O)[O-])c4)cc3F)CC2)C1 [compound 211, (R)-2-((1H-pyrrolo[2,3-b]pyrid-5-yl)oxy)-5-fluoro-N-((4-(((4-fluorotetrahydro-2H-pyran-4-yl)methyl)amino)-3-nitrophenyl)sulfonyl)-4-(2-(2-(2-isopropylphenyl)-4-(pyrid-4-ylmethyl)piperazin-1-yl)-7-azaspiro[3.5]non-7-yl)benzamide]"
9,< 10,"CC(C)c1ccccc1[C@@H]1CN(Cc2ccc(C#N)cc2)CCN1C1CC2(CCN(c3cc(Oc4cnc5[nH]ccc5c4)c(C(=O)NS(=O)(=O)c4ccc(NC[C@H]5CC[C@](C)(O)CC5)c([N+](=O)[O-])c4)cc3F)CC2)C1 [compound 214, 2-((1H-pyrrolo[2,3-b]pyrid-5-yl)oxy)-4-(2-((R)-4-(4-cyanobenzyl)-2-(2-isopropylphenyl)piperazin-1-yl)-7-azaspiro[3.5]non-7-yl)-5-fluoro-N-((4-((((1r, 4r)-4-hydroxy-4-methylcyclohexyl)methyl)amino)-3-nitrophenyl)sulfonyl)benzamide]"
10,< 10,"CC(C)c1ccccc1[C@@H]1CN(Cc2ccc(F)cc2)CCN1C1CC2(CCN(c3cc(Oc4cnc5[nH]ccc5c4)c(C(=O)NS(=O)(=O)c4ccc(NC[C@H]5CC[C@](C)(O)CC5)c([N+](=O)[O-])c4)cc3F)CC2)C1 [compound 215, 2-((1H-pyrrolo[2,3-b]pyrid-5-yl)oxy)-5-fluoro-4-(2-((R)-4-(4-fluorobenzyl)-2-(2-isopropylphenyl)piperazin-1-yl)-7-azaspiro[3.5]non-7-yl)-N-((4-((((1r, 4r)-4-hydroxy-4-methylcyclohexyl)methyl)amino)-3-nitrophenyl)sulfonyl)benzamide]"
11,< 10,"CC(C)c1ccccc1[C@@H]1CN(Cc2cccc(F)c2F)CCN1C1CC2(CCN(c3cc(Oc4cnc5[nH]ccc5c4)c(C(=O)NS(=O)(=O)c4ccc(NC[C@H]5CC[C@](C)(O)CC5)c([N+](=O)[O-])c4)cc3F)CC2)C1 [compound 218, 2-((1H-pyrrolo[2,3-b]pyrid-5-yl)oxy)-4-(2-((R)-4-(2,3-difluorobenzyl)-2-(2-isopropylphenyl)piperazin-1-yl)-7-azaspiro[3.5]non-7-yl)-5-fluoro-N-((4-((((1r, 4r)-4-hydroxy-4-methylcyclohexyl)methyl)amino)-3-nitrophenyl)sulfonyl)benzamide]"
12,< 10,"CC(C)c1ccccc1[C@@H]1CN(Cc2ccc(C3CC3)cc2)CCN1C1CC2(CCN(c3cc(Oc4cnc5[nH]ccc5c4)c(C(=O)NS(=O)(=O)c4ccc(NC[C@H]5CC[C@](C)(O)CC5)c([N+](=O)[O-])c4)cc3F)CC2)C1 [compound 219, 2-((1H-pyrrolo[2,3-b]pyrid-5-yl)oxy)-4-(2-((R)-4-(4-cyclopropylbenzyl)-2-(2-isopropylphenyl)piperazin-1-yl)-7-azaspiro[3.5]non-7-yl)-5-fluoro-N-((4-((((1r, 4r)-4-hydroxy-4-methylcyclohexyl)methyl)amino)-3-nitrophenyl)sulfonyl)benzamide]"
13,< 10,"COc1cc(CN2CCN(C3CC4(CCN(c5cc(Oc6cnc7[nH]ccc7c6)c(C(=O)NS(=O)(=O)c6ccc(NC[C@H]7CC[C@](C)(O)CC7)c([N+](=O)[O-])c6)cc5F)CC4)C3)[C@H](c3ccccc3C(C)C)C2)ccc1C1CC1 [compound 220, 2-((1H-pyrrolo[2,3-b]pyrid-5-yl)oxy)-4-(2-((R)-4-(4-cyclopropyl-3-methoxybenzyl)-2-(2-isopropylphenyl)piperazin-1-yl)-7-azaspiro[3.5]non-7-yl)-5-fluoro-N-((4-((((1r, 4r)-4-hydroxy-4-methylcyclohexyl)methyl)amino)-3-nitrophenyl)sulfonyl)benzamide]"
14,< 10,"COc1ccc(CN2CCN(C3CC4(CCN(c5cc(Oc6cnc7[nH]ccc7c6)c(C(=O)NS(=O)(=O)c6ccc(NC[C@H]7CC[C@](C)(O)CC7)c([N+](=O)[O-])c6)cc5F)CC4)C3)[C@H](c3ccccc3C(C)C)C2)cc1OC [compound 221, 2-((1H-pyrrolo[2,3-b]pyrid-5-yl)oxy)-4-(2-((R)-4-(3,4-dimethoxybenzyl)-2-(2-isopropylphenyl)piperazin-1-yl)-7-azaspiro[3.5]non-7-yl)-5-fluoro-N-((4-((((1r, 4r)-4-hydroxy-4-methylcyclohexyl)methyl)amino)-3-nitrophenyl)sulfonyl)benzamide]"
15,< 10,"COc1ccc(CN2CCN(C3CC4(CCN(c5cc(Oc6cnc7[nH]ccc7c6)c(C(=O)NS(=O)(=O)c6ccc(NC[C@H]7CC[C@](C)(O)CC7)c([N+](=O)[O-])c6)cc5F)CC4)C3)[C@H](c3ccccc3C(C)C)C2)c2c1OCO2 [compound 223, 2-((1H-pyrrolo[2,3-b]pyrid-5-yl)oxy)-5-fluoro-N-((4-((((1r, 4r)-4-hydroxy-4-methylcyclohexyl)methyl)amino)-3-nitrophenyl)sulfonyl)-4-(2-((R)-2-(2-isopropylphenyl)-4-((7-methoxybenzo[d][1,3]dioxycyclopent-4-yl)methyl)piperazin-1-yl)-7-azaspiro[3.5]non-7-yl)benzamide]"
